Assay results from EP0832891B1, “Dihydrobenzo (B) indeno (2,1-D) thiophene compounds, intermediates, processes, compositions, and methods” (ELI LILLY AND COMPANY, priority 1996, dated 1998).
Marks after values point to notes of the source that are not given here.

What was measured:
[1] = tested on: ovariectomized rats; parameters: species or system Sprague Dawley rats; conditions: rat, in vivo, po, 0.1 mg/kg/day
Experimental: (§1) In the examples illustrating the methods, a postmenopausal model was used in which effects of different treatments upon circulating lipids were determined.
(§2) Seventy-five day old female Sprague Dawley rats (weight range of 200 to 225g) were obtained from Charles River Laboratories (Portage, MI). The animals were either bilaterally ovariectomized (OVX) or exposed to a Sham surgical procedure at Charles River Laboratories, and then shipped after one week. Upon arrival, they were housed in metal hanging cages in groups of 3 or 4 per cage and had ad libitum access to food (calcium content approximately 0.5%) and water for one week. Room temperature was maintained at 22.2° ± 1.7° C with a minimum relative humidity of 40%. The photoperiod in the room was 12 hours light and 12 hours dark.
Dosing Regimen Tissue Collection. After a one week acclimation period (therefore, two weeks post-OVX) daily dosing with test compound was initiated. 17α-ethynyl estradiol or the test compound were given orally, unless otherwise stated, as a suspension in 1% carboxymethylcellulose or dissolved in 20% cyclodextrin. Animals were dosed daily for 4 days. […] The animals were then sacrificed by asphyxiation with CO2, the uterus was removed through a midline incision, and a wet uterine weight was determined.

[2] = tested on: Eosinophil peroxidase; parameters: species or system Sprague Dawley rats; conditions: rat, in vivo
Text: as §2
Dosing Regimen Tissue Collection. After a one week acclimation period (therefore, two weeks post-OVX) daily dosing with test compound was initiated. […] The animals were then sacrificed by asphyxiation with CO2, the uterus was removed through a midline incision, and a wet uterine weight was determined.
Uterine Eosinophil Peroxidase (EPO) Assay. […] Upon addition of 0.01% hydrogen peroxide and 10 mM O-phenylenediamine (final concentrations) in Tris buffer, increase in absorbance was monitored for one minute at 450 nm. […] The maximal velocity of a 15 second interval was determined over the initial, linear portion of the reaction curve.

[3] = tested on: ovariectomized rats; assay: Serum cholesterol analysis in ovariectomized rats; type: in vivo, Sprague Dawley rats; conditions: for Serum Cholest. % Decrease: daily for 4 days, versus ovariectomized controls
Experimental: as §1, §2
Dosing Regimen Tissue Collection. After a one week acclimation period (therefore, two weeks post-OVX) daily dosing with test compound was initiated. 17α-ethynyl estradiol or the test compound were given orally, unless otherwise stated, as a suspension in 1% carboxymethylcellulose or dissolved in 20% cyclodextrin. Animals were dosed daily for 4 days. Following the dosing regimen, animals were weighed and anesthetized with a ketamine: xylazine (2:1, V:V) mixture and a blood sample was collected by cardiac puncture. The animals were then sacrificed by asphyxiation with CO2, the uterus was removed through a midline incision, and a wet uterine weight was determined.
Cholesterol Analysis. Blood samples were allowed to clot at room temperature for 2 hours, and serum was obtained following centrifugation for 10 minutes at 3000 rpm. Serum cholesterol was determined using a Boehringer Mannheim Diagnostics high performance cholesterol assay. Briefly the cholesterol was oxidized to cholest-4-en-3-one and hydrogen peroxide. The hydrogen peroxide was then reacted with phenol and 4-aminophenazone in the presence of peroxidase to produce a p-quinone imine dye, which was read spectrophotemetrically at 500 nm. Cholesterol concentration was then calculated against a standard curve.

[4] = tested on: MCF-7 breast adenocarcinoma cells; assay: MCF-7 Proliferation Assay (tritiated thymidine uptake); type: cell-based; conditions: Homo sapiens, MCF7; MCF-7 cells, 48 hours with drug, tritiated thymidine pulse 4 hours
Experimental: MCF-7 breast adenocarcinoma cells (ATCC HTB 22) were maintained in MEM (minimal essential medium, phenol red-free, Sigma, St. Louis, MO) supplimented with 10% fetal bovine serum (FBS) (V/V), L-glutamine (2 mM), sodium pyruvate (1 mM), HEPES {(N-[2-hydroxyethyl]piperazine-N'-[2-ethanesulfonic acid]10 mM}, non-essential amino acids and bovine insulin (1 µg/mL) (maintenance medium). Ten days prior to assay, MCF-7 cells were switched to maintenance medium supplemented with 10% dextran coated charcoal stripped fetal bovine serum (DCC-FBS) assay medium) in place of 10% FBS to deplete internal stores of steroids. MCF-7 cells were removed from maintenance flasks using cell dissociation medium (Ca++/Mg++ free HBSS (phenol red-free) supplemented with 10 mM HEPES and 2 mM EDTA). Cells were washed twice with assay medium and adjusted to 80,000 cells/mL. Approximately […] (8,000 cells) were added to flat-bottom microculture wells (Costar 3596) and incubated at 37° C in a 5% CO2 humidified incubator for 48 hours to allow for cell adherence and equilibration after transfer. Serial dilutions of drugs or DMSO as a diluent control were prepared in assay medium and […] to triplicate microcultures […]. […] Samples were counted by liquid scintillation using a Wallace BetaPlace β counter.

Row | SMILES | uterine weight (result in words) [1] | Uterine Eosinophil (Vmax) [2] | eosinophil infiltration into the uterus (result in words) [2] | Serum Cholest. % Decrease ([3]; 0.1 mg/kg PO) | serum cholesterol (result in words) ([3]; compared to ovariectomized control animals, EE2 orally at 0.1 mg/kg/day) | Serum Cholest. % Decrease ([3]; 1 mg/kg PO) | Serum Cholest. % Decrease ([3]; 10 mg/kg PO) | EC50 [4]
1 | C#C[C@]1(O)CC[C@H]2[C@@H]3CCc4cc(O)ccc4[C@H]3CC[C@@]21C [EE2, 17α-ethynyl estradiol, reference compound] | substantially greater than the uterine weight of ovariectomized test animals | 357.3* | substantial, expected increase in eosinophil infiltration | 95.2* % | caused a decrease in serum cholesterol |  |  | 
2 | Oc1ccc2c(c1)S[C@H]1c3ccccc3[C@@H](c3ccc(OCCN4CCCCC4)cc3)[C@@H]21 [Example 3] |  |  |  | 12.0% |  | 35.7* % | 65.0* % | 0.1 µM
